The target of test [1] is JAK2 (Homo sapiens, UniProt O60674). The test can be described thus: SelectScreen kinase profiling, JAK2. In kind it is biochemical. As to conditions: read-out: Enzyme inhibitory activity IC50.
The target in test [2] is LYN A (Homo sapiens, UniProt P07948). The test can be described thus: SelectScreen kinase profiling, LYN A. In kind it is biochemical. As to conditions: read-out: Enzyme inhibitory activity IC50.
Test [3] concerns the target ERBB2 (HER2) (Homo sapiens, UniProt P04626). Briefly: SelectScreen kinase profiling, ERBB2. In kind it is biochemical. The note with it: read-out: Enzyme inhibitory activity IC50.
For test [4], the target named is LTK (TYK1) (Homo sapiens, UniProt P29376). Briefly: SelectScreen biochemical kinase profiling, LTK (TYK1). The note with it: cell free, read-out: Enzyme inhibitory activity IC50. Here is the method: (§1) The in vitro kinase inhibitory assays in the presence of compounds 323-1 and 323-2 were carried out according to the Z′-LYTE™ Screening and LanthaScreen Eu Kinase Binding Assays Experimental Procedures in Invitrogen (ThermoFisher Scientific, Waltham, Mass., USA). For the Z′-LYTE™ Screening profiling for FRAP1 (mTOR), JAK3, and LTK (TYK1), a mixture containing the test compounds in 100% DMSO, 2.4 μL Kinase buffer (50 mM HEPES pH 7.5, 0.01% BRIJ-35, 10 mM MgCl2, 1 mM EGTA), 5 μL 2× Peptide/Kinase Mixture, 2.5 μL 4×ATP Solution were added into black 384-well low volume NBS and bar-coded corning plate (Corning Cat. #4514) and shake the plate for 30 seconds. After incubation at RT for 60 min, 5 μL Development Reagent Solution was added into plate and shake the plate for 30 seconds, followed by Development Reaction incubation at RT for 60 min. Read on fluorescence plate reader and analyze the data. […]
(§2) Inhibition by compounds 323-1 and 323-2 of MAP2K4 (MEK4) and TGFBR1 (ALK5) was determined by […]. Inhibition by compounds 323-1 and 323-2 of FRAP1 (mTOR), JAK3, and LTK (TYK1) was determined by […] using the Adapta Universal Kinase Assay (Life Technologies). […]

Test [5] deals with T1, Recombinant Human STAT3 protein (SH2 domain) (Homo sapiens, UniProt P40763).
T1 construct: purchased Abcam ab43618
The test can be described thus: Fluorescence Polarization (FP) competition assay, STAT3 / GpYLPQTV-NH2 peptide. In kind it is binding. The method, then:
The FP assay was conducted as described by Zhao et al. (J Biol Chem. 2010; 285: 35855-65). The labeled phosphopeptide, 5-FLU-G(P-TYR)LPQTV-NH2 was synthesized by ProImmune (London, UK) with over 95% purity as probe. The Recombinant Human STAT3 protein was purchased from Abcam (ab43618). For saturation curves, various concentration of peptide probe (0-100 nM) and STAT3 protein ([…]) were incubated for 30 min at RT in the buffer (50 mm NaCl, 10 mm HEPES, 1 mm EDTA, 0.1% Nonidet P-40). To obtain the inhibitory effect, drugs (0-1000 μM) and 150 nM human STAT3 were incubated at 37° C. for 1 hour prior to co-incubation with 10 nM of labeled LPQTV peptide at RT for 30 min. […] The fluorescence polarization was then analyzed by the BioTek Synergy™ Neo2 Multi-Mode Microplate Reader (BioTek Instruments, Winooski, Vt., USA). Ki=IC50/(([L])/Kd)+1).
Strategies to target STAT3 SH2 have been pursued recently. These small molecule inhibitors are designed to bind to a site resident in the STAT3 SH2 domain by competing with the p-Tyr705.
As STAT3 may be recruited to gp130 within phosphotyrosine residues, the competitive FP assay was utilized to identify whether 323-1 and 323-2 target STAT3 SH2 domain.
The control was set as 1% DMSO. Data are representative of 2 independent experiments.
(Fluorescence polarisation rises when a labelled molecule tumbles more slowly, as on binding a larger partner.)

In test [6] the target is TGFBR1 (ALK5) (Homo sapiens, UniProt P36897). Briefly: SelectScreen kinase profiling, TGFBR1 (ALK5). In kind it is binding. As to conditions: cell free, read-out: Enzyme inhibitory activity IC50. The method, then: as §1, §2
For test [7], the target named is MAPK9 (JNK2) (Homo sapiens, UniProt P45984). Briefly: SelectScreen kinase profiling, MAPK9. In kind it is biochemical. The note with it: read-out: Enzyme inhibitory activity IC50.
Test [8] concerns DU145 cells. Briefly: Flow cytometric analysis of cell apoptosis. The note with it: 72 hrs. In kind it is cell-based, human. Here is the method:
The […] effect of compounds 323-1 and 323-2 was evaluated in DU145 cells.
Data are shown as representative results of three experiments.

The mark [9] stands for this setting: 10 nM peptide, 150 nM human STAT3 (FIG. 20), read-out: Ki, disruption of binding of STAT3 to phosphotyrosine peptide GpYLPQTV.
Where [10] appears, read: background (autofluorescence) subtracted (FIG. 33), read-out: Ki, protein-ligand interaction after background subtraction.

Read-outs that look alike come from different tables or passages of the source.

T1 sequence (P40763 whole entry, the tested form may be a part): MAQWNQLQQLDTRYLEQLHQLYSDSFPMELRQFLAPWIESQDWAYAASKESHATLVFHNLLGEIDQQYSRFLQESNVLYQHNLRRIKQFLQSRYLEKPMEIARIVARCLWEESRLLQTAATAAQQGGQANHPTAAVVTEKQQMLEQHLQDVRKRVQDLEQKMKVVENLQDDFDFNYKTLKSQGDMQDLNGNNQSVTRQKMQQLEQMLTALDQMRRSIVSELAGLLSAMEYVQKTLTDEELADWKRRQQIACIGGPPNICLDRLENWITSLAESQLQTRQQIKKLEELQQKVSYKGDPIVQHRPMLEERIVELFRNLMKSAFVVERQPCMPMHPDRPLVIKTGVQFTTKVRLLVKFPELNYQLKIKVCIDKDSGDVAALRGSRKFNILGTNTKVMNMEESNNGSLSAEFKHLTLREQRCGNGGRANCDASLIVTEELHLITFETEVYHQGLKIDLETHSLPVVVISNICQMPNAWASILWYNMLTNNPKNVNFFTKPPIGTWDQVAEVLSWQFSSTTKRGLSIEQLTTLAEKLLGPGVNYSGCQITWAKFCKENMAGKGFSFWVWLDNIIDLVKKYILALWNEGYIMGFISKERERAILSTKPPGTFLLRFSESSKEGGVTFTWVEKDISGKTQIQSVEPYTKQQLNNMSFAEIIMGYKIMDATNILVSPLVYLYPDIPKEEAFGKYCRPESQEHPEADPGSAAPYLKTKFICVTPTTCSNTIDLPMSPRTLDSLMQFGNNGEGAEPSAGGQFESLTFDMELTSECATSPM
Sequence of MAPK9 (JNK2) (P45984 whole entry): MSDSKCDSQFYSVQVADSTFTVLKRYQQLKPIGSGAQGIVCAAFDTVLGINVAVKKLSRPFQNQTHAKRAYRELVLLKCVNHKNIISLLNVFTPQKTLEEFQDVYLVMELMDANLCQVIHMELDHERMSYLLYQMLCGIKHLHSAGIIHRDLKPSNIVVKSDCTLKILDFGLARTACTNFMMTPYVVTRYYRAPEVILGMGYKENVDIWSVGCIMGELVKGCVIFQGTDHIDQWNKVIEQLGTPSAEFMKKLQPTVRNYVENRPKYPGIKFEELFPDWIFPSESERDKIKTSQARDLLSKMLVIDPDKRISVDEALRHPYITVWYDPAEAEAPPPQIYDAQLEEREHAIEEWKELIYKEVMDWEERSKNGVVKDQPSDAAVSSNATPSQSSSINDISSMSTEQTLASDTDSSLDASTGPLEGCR
Sequence of JAK2 (O60674 whole entry): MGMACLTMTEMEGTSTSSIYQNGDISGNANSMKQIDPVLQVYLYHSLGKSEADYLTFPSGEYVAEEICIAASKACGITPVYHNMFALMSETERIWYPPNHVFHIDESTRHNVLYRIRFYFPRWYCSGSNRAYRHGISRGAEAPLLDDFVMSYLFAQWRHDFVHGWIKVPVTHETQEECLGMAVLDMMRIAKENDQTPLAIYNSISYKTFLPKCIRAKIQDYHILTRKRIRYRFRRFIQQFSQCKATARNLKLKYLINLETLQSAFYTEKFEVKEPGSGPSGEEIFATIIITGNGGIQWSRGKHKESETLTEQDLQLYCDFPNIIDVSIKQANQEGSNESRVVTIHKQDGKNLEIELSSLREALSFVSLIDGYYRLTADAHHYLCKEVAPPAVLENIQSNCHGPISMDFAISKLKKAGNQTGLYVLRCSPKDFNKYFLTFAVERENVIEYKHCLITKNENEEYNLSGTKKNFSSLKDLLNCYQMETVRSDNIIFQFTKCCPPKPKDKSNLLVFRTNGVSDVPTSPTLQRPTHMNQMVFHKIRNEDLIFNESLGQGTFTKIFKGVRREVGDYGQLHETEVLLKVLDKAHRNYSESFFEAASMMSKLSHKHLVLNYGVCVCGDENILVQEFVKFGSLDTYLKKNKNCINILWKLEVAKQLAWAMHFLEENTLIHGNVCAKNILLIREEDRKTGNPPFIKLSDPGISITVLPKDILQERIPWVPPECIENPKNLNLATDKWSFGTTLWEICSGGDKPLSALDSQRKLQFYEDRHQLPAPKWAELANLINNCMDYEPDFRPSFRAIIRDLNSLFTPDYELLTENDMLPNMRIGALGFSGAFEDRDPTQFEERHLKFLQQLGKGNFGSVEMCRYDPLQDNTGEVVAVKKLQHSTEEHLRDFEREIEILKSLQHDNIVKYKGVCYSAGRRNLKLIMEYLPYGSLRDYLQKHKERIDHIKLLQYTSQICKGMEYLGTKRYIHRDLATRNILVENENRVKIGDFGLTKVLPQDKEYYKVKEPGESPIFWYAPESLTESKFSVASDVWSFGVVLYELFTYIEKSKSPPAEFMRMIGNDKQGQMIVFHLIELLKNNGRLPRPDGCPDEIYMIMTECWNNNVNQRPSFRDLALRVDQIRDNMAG
Sequence of TGFBR1 (ALK5) (P36897 34-503): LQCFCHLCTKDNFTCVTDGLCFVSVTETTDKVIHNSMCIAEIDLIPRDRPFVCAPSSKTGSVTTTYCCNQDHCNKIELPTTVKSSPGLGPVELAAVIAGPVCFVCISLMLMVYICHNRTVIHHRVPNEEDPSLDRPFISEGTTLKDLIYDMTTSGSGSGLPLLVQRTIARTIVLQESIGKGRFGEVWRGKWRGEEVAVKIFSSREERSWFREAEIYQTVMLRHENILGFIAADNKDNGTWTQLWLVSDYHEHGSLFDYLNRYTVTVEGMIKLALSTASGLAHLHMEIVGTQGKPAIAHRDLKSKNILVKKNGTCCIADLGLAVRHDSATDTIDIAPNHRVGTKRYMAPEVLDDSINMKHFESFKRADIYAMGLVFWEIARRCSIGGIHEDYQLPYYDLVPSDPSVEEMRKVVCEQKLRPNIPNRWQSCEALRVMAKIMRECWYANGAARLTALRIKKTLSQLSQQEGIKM
Sequence of LYN A (P07948 whole entry): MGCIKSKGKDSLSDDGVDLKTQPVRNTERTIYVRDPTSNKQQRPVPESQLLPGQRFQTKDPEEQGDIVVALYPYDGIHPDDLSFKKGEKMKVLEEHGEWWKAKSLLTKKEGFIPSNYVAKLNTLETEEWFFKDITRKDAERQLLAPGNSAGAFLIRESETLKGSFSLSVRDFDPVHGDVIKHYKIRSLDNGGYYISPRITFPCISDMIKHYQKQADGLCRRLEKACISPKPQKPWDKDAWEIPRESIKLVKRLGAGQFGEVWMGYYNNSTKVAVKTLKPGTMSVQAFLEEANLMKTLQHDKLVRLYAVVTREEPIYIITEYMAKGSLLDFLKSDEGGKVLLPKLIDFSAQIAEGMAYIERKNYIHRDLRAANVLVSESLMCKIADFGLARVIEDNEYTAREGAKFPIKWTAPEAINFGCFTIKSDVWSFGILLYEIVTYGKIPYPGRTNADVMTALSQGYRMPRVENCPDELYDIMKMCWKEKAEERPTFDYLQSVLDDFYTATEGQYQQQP
Sequence of LTK (TYK1) (P29376 17-864): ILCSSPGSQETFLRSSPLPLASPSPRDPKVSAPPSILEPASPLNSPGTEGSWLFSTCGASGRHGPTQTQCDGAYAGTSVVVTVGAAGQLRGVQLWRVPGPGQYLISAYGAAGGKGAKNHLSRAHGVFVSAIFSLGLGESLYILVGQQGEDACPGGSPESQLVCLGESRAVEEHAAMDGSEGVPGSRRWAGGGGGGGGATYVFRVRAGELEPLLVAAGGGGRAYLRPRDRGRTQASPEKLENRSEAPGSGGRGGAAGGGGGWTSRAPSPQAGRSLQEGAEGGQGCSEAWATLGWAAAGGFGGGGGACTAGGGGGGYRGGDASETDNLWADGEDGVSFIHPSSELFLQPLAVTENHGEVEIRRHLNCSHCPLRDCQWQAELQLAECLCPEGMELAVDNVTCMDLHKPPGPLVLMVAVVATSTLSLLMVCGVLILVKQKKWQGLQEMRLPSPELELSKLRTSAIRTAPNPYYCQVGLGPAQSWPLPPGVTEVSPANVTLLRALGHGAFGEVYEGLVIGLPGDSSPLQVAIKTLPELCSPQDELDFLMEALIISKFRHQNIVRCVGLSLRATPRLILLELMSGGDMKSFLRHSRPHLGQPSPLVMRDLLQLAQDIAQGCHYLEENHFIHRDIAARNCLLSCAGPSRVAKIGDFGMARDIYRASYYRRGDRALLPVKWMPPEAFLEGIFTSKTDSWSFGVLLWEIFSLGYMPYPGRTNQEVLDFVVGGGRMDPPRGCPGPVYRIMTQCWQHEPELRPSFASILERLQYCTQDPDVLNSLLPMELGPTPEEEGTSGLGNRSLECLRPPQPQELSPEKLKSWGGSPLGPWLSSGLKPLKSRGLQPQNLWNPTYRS

Consider `C[C@@H]1CCC(c2cc3c4c(cncc4c2)[C@H](C)C3)=C1C=O` [323-1, (15R,2R)-Delavatine A], for which the half-maximal inhibitory concentration (IC50) (usually the concentration that inhibits the measured activity by half) in test [1] was more than 20 µM; in test [2], more than 20 µM; in test [3] it was more than 20 µM; in test [4] it was 6.22 µM; in test [6], 7.95 µM; in test [7], more than 20 µM. Moreover, the Ki (usually the dissociation constant of the complex between target and ligand, obtained from inhibition or displacement) is approximately 94 µM in test [5] (setting [9]) and 94 µM in test [5] (setting [10]).

Take `C[C@@H]1CCC(c2cc3c4c(cncc4c2)[C@@H](C)C3)=C1C=O` [323-2, (15S,2R)-Delavatine A]: the IC50 in test [1] is more than 20 µM; in test [2], more than 20 µM; in test [3], more than 20 µM; in test [4], 5.25 µM; in test [6], 9.25 µM; in test [7] it was more than 20 µM. In addition, the Induction of apoptosis entry in test [8] is reported as “appeared to induce apoptosis”. For the same compound, the “Induction of apoptosis compared with cryptotanshinone” value in test [8] is given as “much weaker than by cryptotanshinone”. The inhibition constant (Ki) is approximately 75 µM in test [5] (setting [9]) and 75 µM in test [5] (setting [10]). The “Potency to disrupt STAT3/GpYLPQTV relative to S3I-201” value in test [5] (higher than S3I-201) is “around 5 fold”.

The values are drawn from patent US20230286919A1, “ISOQUINOLINE DERIVATIVES FOR USE IN THERAPY” (Vestlandets Innovasjonsselskap AS, priority 2020, published 2023).
